Assays:
[1] = tested on: cancer cell lines of Table 2 (A549, A549/CR, A549/PR, CAPAN-1, NCI-H1048, MDA-MB-231, Mia PaCa-2, SNU-324, OVCAR3, PA-1, PANC-1, U-87 MG); test: Cell viability assay (WST) with combination synergy analysis (Bliss score); assay type: cell-based, human; conditions: combination with various DNA damage inducers, FIGS. 1 to 25; culture ended on days 7 to 9
Protocol: Most cell lines were obtained from the American Type Culture Collection (ATCC) or the Korean Cell Line Bank (KCLB). Combination experiments in cisplatin-resistant and paclitaxel-resistant cell lines were performed at the Asan Preclinical Evaluation center for cancer therapeutiX of Asan Medical Center, Seoul. All cell lines were maintained in appropriate growth medium for the cell line in 100-pi dishes oRT75 (75 cm2) flasks, cultured at 37° C. with 5% CO2, and passaged every 3-4 days. Growth medium conditions and cell line information are listed in Table 2, and the cells were counted using Countess (Invitrogen) to obtain the number of viable cells. Mutation and HRD status by cell type are described in Table 3.
The next day, compound-87 was diluted 1/2 to 1/4 to a concentration of 20 μM to 0.002 μM and treated at a set concentration range, and the co-administered drug was diluted 1/2 to 1/3 to a concentration of 100 μM to 0.00046 μM and treated at a 1:1 (v/v) ratio. Finally, the treatment ratio of compound-87 and the co-administered substance was between 1:20000 and 1:0.00015, and in clinical practice, compound-87: drug to be co-administered can be treated at a ratio of 1:10000 to 1:0.0001.
PANC-1 (wild-type BRCA1/BRCA2) pancreatic cancer cells were treated with compound-87 at concentrations of […], and E7016, a PARP inhibitor as a co-administered agent at concentration of 0.078, 0.156, 0.313, 0.625, 1.25, 2.5, 5, or 10 μM (FIG. 25). Cell culture was terminated on days 7 to 9, and cell viability and synergistic effect were evaluated for each combination of concentrations.
Cell viability was measured by a colorimetric assay using water-soluble tetrazolium salt (WST). […]
Results are normalized to DMSO-treated groups as 100% and expressed as the percent of viable cells upon compound addition. […]
The synergy of each compound was analyzed using Combenefit software (Cambridge Research UK, Cambridge Institute, University of Cambridge, United Kingdom), and synergy was evaluated by using Blliss (Ref: Di Veroli et al., 2016, Bioinformatics 32(18):2866-2868). […]

[2] = tested on: symmetric dimethyl arginine (SDMA); test: In vivo target inhibition: SDMA ELISA in tumor samples of the Mia PaCa-2 xenograft mouse model
Protocol: Quantitative reduction levels of symmetric dimethyl arginine (SDMA) in tumor samples harvested from a subcutaneous xenograft mouse model of Mia PaCa-2 were measured by enzyme-linked immunosorbent assay (ELISA).
Reagents: Bradford solution (catalog no. 500-0006) was purchased from Bio-rad (USA). SDMA antibody (catalog no. 13222s) was purchased from Cell signaling Technology (USA). SmD3 antibody (catalog no. ap12451a) was purchased from Abgent (USA). Secondary antibody (catalog no. ab6721) and TMB substrate (catalog no. ab210902) were purchased from Abcam (UK).
Experimental procedure: Tumor tissue transplanted into mice was extracted, cells were lysed, and quantified with Bradford solution. […] of protein per sample was diluted with carbonate-bicarbonate buffer, dispensed into a 96-well plate, and reacted at room temperature for 2 hours. After washing three times with phosphate-buffered saline (PBST) containing 0.05% Tween-20, 200 μL of PBST containing 5% bovine serum albumin (BSA) (BSA-PBST) was added, and reacted at room temperature for 2 hours. After washing three times with PBST, 100 μL of SDMA antibody and SmD3 antibody were diluted in BSA-PBST, each was dispensed, and reacted overnight at 4° C. After washing three times with PBST on next day, 100 μL of secondary antibody diluted in BSA-PBST was added, and reacted at room temperature for 1 hour. After washing three times with PBST, 100 μL of TMB substrate was added and reacted at room temperature for 10-20 minutes, and 100 μL of 1N sulfuric acid solution was added to terminate the reaction. Then, the degree of SDMA inhibition by the compound was calculated by measuring the absorbance at 450 nm.

[3] = tested on: human small cell lung cancer cells NCI-H1048; test: Subcutaneous xenograft mouse model of NCI-H1048 small cell lung cancer cells, tumor growth inhibition; assay type: in vivo; conditions: day 23
Protocol: For in vivo efficacy study in a subcutaneous xenograft mouse model of human small cell lung cancer cells NCI-H1048, co-administration of compound-87 as a PRMT5 inhibitor according to an example of the present invention and cisplatin as an alkylating agent of a chemotherapeutic agent, was performed. To produce a small cell lung cancer xenograft model, 10 million of NCI-H1048 cells were injected subcutaneously into the right flank of female nude mice, and tumor growth was monitored.
To evaluate the anticancer effect, when the tumor volume reached approximately 162 mm^3 on average, the mice were divided into four groups. The all group included a solvent-treated group (Vehicle 1 (Compound-87)+Vehicle 2 (cisplatin) group), a Compound-87 monotherapy group (50 mg/kg), a cisplatin monotherapy group (4 mg/kg), and combination therapy group of Compound-87 and cisplatin. The Compound-87 treatment group was administered orally on a 3-day administration/4-day non-administration schedule, and cisplatin was administered intraperitoneally once a week for 22 days (Day 1-Day 23). All mice were euthanized on Day 22 (Day 23).

SMILES: CN1CCC(Oc2ccc3c(c2)OCCN(C[C@H](O)CN2CCc4ccccc4C2)C3=O)CC1 [Compound-87, 4-[(2R)-3-(3,4-dihydro-1H-isoquinolin-2-yl)-2-hydroxy-propyl]-8-[(1-methyl-4-piperidyl)oxy]-2,3-dihydro-1,4-benzoxazepin-5-one]
- inhibition of cell viability, combination treatment compared to single agent [1]: enhanced inhibition effects of cell viability
- SDMA amount in tumor samples compared to the vehicle group ([2]; 25 mg/kg Compound-87, 3 days on/4 off for 24 days): 37.4%
- SDMA amount in tumor samples compared to the vehicle group ([2]; 50 mg/kg Compound-87, 3 days on/4 off for 24 days): 27.7%
- inhibition at 25 mg/kg ([2]; Mus musculus, MIA PaCa-2, 25 mg/kg Compound-87, 3 days on/4 off for 24 days): 62.6%
- inhibition at 50 mg/kg ([2]; Mus musculus, MIA PaCa-2, 50 mg/kg Compound-87, 3 days on/4 off for 24 days): 72.3%
- partial response ([3]; compound-87 50 mg/kg oral combined with cisplatin 4 mg/kg i.p., partial response in all mice): 60.6%
- tumor growth inhibition rate ([3]; compound-87 alone, 50 mg/kg oral, 3-day administration/4-day non-administration): 62.0%
